Data set [1] can be described thus: Tissue distribution by LC-MS. The class given is in vivo. Particulars: both sexes, healthy mice, i.p. 25 mg/kg. Here is the method:
To determine if liver tissue accumulation plays a role in the observed in vivo efficacy of STR-V-53, we used LC-MS to evaluate the distribution of STR-V-53 in selected tissues (liver and lungs) and plasma. We analyzed samples from healthy mice exposed to STR-V-53 (i.p. injection) at 25 mg/kg for 8 h. […] The average level of STR-V-53 in circulation in the plasma of healthy mice was ∼ […] 8 h postinjection. In contrast, the level of STR-V-53 in the liver was approximately 4 times its plasma level (Figure 5d). […]
for another 48 h. Cells were washed with cold 1x PBS solution twice and trypsinized.
Subsequently, cells were collected using 5 mL 1x PBS buffer and fixed overnight at -20 °C using 70% ethanol. Cells were centrifuged in 1x PBS on day 2 at 4 °C with a spin speed of 3,000g, re-suspended in 1x PBS, and centrifuged again under the same condition. The supernatant was removed, and the cell pellets were re-suspended with 500 µL of 200 ug/mL RNase for 30 min.
(§1) Then cells were treated with another 500 µL of 100 ug/mL PI staining at room temperature for 30 min. The cell cycle was analyzed with BD FACS Aria Illu analyzer, and the data were […]
The stability of STR-V-53 in murine and human plasmas was determined through a contract agreement with Cyprotex, an Evotec Company (https://www.cyprotex.com)
Maximum tolerated dose determination
C57BL/6 mice, 6–8 weeks old, 3 males and 3 females per treatment group, were injected […]
days in Kolliphor/DMA/water vehicle. We measured body weight and monitored daily food consumption, overall health, and mortality. On the eighth day, mice were sacrificed by cervical dislocation, and organs were harvested and frozen at −80 ◦C.
Tissue distribution studies
C57Bl/6 mice, 6–8 weeks old, 3 males and 3 females per treatment group, were injected […]
the injection, organs were harvested and frozen at −80 °C for subsequent quantification by LC-

The nature of data set [2]: Plasma stability (Cyprotex). The class given is in vitro ADME. Here is the method: (§2) Based on the data from the aforementioned in vitro studies, we selected STR-V-53 as a candidate for further evaluation in xenograft and murine models of HCC. Before the efficacy studies, we first determined the plasma stability (murine and human) and maximum tolerated dose (MTD) of STR-V-53 in healthy C57Bl/6 mice. […]. For MTD determination, STR-V-53 was administered via i.p. injection using a formulation containing excipients found in FDA-approved drugs—dimethylacetamide (DMA)/Cremophor RH 40 (CRH)/Water (10%/20%/70%)—that we developed.[17] […]
as §1
(§3) The stability of STR-V-53 in murine and human plasmas was determined through a contract agreement with Cyprotex, an Evotec Company (https://www.cyprotex.com) […]
(§4) days in Kolliphor/DMA/water vehicle. We measured body weight and monitored daily food consumption, overall health, and mortality. […]
(§5) C57Bl/6 mice, 6–8 weeks old, 3 males and 3 females per treatment group, were injected intraperitoneally with STR-V-53 at […] in Kolliphor/DMA/water vehicle. Eight hours after the injection, organs were harvested and frozen at −80 °C for subsequent quantification by LC-

Data set [3] deals with NCI-60 panel cancer cells. The data set can be described thus: NCI-60 panel one-dose screen. Type of data set: cell-based. Particulars: 10 μM. How it is done: To further investigate the cancer cell-type selectivity of these glycosylated HDACi, we screened STR-V-53 (10 μM) in the NCI 60 panel. […] The antiproliferative effect of STR-V-53 against Hep-G2 cells and its lack of growth inhibition in the NCI-60 panel strongly support the HCC cell-selective attribute of STR-V-53 and possibly other lead glycosylated HDACi identified herein.

The test system of the next data set is healthy C57Bl/6 mice. The data set is described as follows: Maximum tolerated dose determination. The class given is in vivo. The settings on record: 100 mg/kg i.p. daily for 6 days. Here is the method:
as §2, §1, §3, §4, §5

Regarding `O=C(CCCCCCn1cc(-c2ccc(O[C@H]3O[C@H](CO)[C@@H](O)[C@H](O)[C@H]3O)cc2)nn1)NO` [STR-V-53], in data set [1] (C57Bl/6, mouse, liver (relative to plasma), ip, 8 h, read-out: Level in the liver relative to plasma level), the Kp at 8 h is about 4. Further, the concentration at 8 h in data set [1] (C57Bl/6, mouse, plasma, ip, 8 h postinjection, read-out: Average level in plasma) was about 0.01 ng/mL. For the same compound, the “Level in the lungs” value in data set [1] (8 h) is listed as “below the detection limit”. Besides, the half-life in data set [2] (human plasma) is over 1200 min; in data set [2] (mouse, murine plasma), 46 min. The “Mean cell growth in NCI-60 panel” value in data set [3] turned out to be 99.6%. Further, in the data set on healthy C57Bl/6 mice, the “Body weight as an indicator of toxicity” value is recorded as “no significant body weight loss”.

A word on the half-life: it is the time in which the quantity being followed falls by half. Read a high half-life as slow decline.

Source of the values: publication PMC11475281, “A Novel Liver Cancer-Selective Histone Deacetylase Inhibitor Is Effective against Hepatocellular Carcinoma and Induces Durable Responses with Immunotherapy” (ACS Pharmacology & Translational Science, 2024).
